Entries after “also recorded” stand apart in the source; their conditions may differ.
Key:
NK1−/− and NK1+/+ mice [1] = test: Light/dark exploration box (LDEB), locomotor activity after d-AMP with or without NK1 antagonist pretreatment; format: in vivo; conditions: for behaviour (locomotor activity, response to d-AMP) of NK1+/+ mice given a NK1 antagonist ('pseudo knockout'): RP 67580 5 or 10 mg/kg i.p. or L 733060 5 mg/kg; for locomotor activity (number of lines crossed): d-AMP 2.5 mg/kg i.p.
Method: (§1) Experiments were carried out on male NK1−/− (‘knock-out’) and NK1+/+(wild-type) mice, weighing 25-35 g (i.e. about 6-7 weeks of age). Mice were derived from a 129/Sv×C57BL/6 genetic background that had been crossed with an outbred MF1 strain (Harlan OLAC, Bicester, UK). All mice were taken from a colony maintained at University College London.
All experiments tested the behaviour of (formerly) treatment-naïve mice in the LDEB and were carried out between 13:00 h and 15:00 h. Each LDEB consisted of a small ‘dark zone’ (length, 15 cm; width, 20 cm; 174 lux) and a larger ‘light zone’ (length 30 cm; width, 20 cm; 346 lux). The walls and floor of the ‘dark zone’ were coloured black. The walls and floor of the ‘light zone’ were coloured white. The floor of both zones was marked as a grid of 5×5 cm squares (12 in the dark zone, 24 in the light zone) which was used to score locomotor activity. The partition separating the two zones incorporated a small (white) guillotine-style door (height 10.5 cm, width 7.5 cm), which could be raised to allow animals to commute between the two compartments. Mice were tested in pairs in two LDEBs, placed side by side. At 13:00 h, each mouse was placed in the dark zone of a LDEB, with the partition door closed. After 30 min in the dark zone, mice of each genotype were randomly assigned to one of six treatment groups (n=3˜4) and given an injection (10 mL/kg; i.p) of either vehicle (one drop of Tween 80 in saline to appropriate volume) or the NK1 antagonist, RP 67580 (5 or 10 mg/kg). The same subjects were given a second injection or either saline or d-amphetamine (2.5 mg/kg, i.p), 30 min later.
At 14:30 h, each mouse was transferred to the centre of the novel light zone, facing away from the guillotine style door. The door was immediately lifted to allow the animals to commute freely between the two compartments. Their behaviour was recorded with a Sony Handycam Vision video recorder for 30 min. The number of lines crossed by all four paws of the mouse (as an index of locomotor activity) was scored ‘blind’, in 5-min time-bins.
In a second experiment, this protocol was repeated, substituting the NK1 antagonist, L 733060 (5 mg/kg) in place of RP 67580. All other details (including Tween vehicle) were the same.
RP 67580 was administered at 5 or 10 mg/kg; dissolved in a drop of Tween 80 and adjusted to the appropriate concentration by adding 0.9% saline. […]
The data were analysed by three-way (experiment testing RP 67580) or two-way (for […]) ANOVA using ‘genotype’, ‘drug’ and ‘dose’ (if appropriate) as main factors. […] Data are expressed as means±s.e.mean and P≦0.05 was set as the criterion for significance.

NK1−/− and NK1+/+ mice [2] = test: Light/dark exploration box (LDEB), locomotor activity after methylphenidate; format: in vivo; conditions: methylphenidate 2.5 mg/kg i.p.
Method: as §1, with “NK1+/+ (wild-type)” for “NK1+/+(wild-type)”
All experiments tested the behaviour of (formerly) treatment-naïve mice in the LDEB and were carried out between 13:00 h and 15:00 h. Each LDEB consisted of a small ‘dark zone’ (length, 15 cm; width, 20 cm; 174 lux) and a larger ‘light zone’ (length, 30 cm; width 20 cm; 346 lux). The walls and floor of the ‘dark zone’ were coloured black. The walls and floor of the ‘light zone’ were coloured white. […]
30 min later, the mice were transferred to the centre of the novel light zone, facing away from the guillotine style door. […] Their behaviour was recorded with a Sony Handycam Vision video recorder for 30 min. The number of lines crossed by all four paws of the mouse (an index of locomotor activity) was scored ‘blind’, in 10-min time-bins. […]
The data were analysed by two-way ANOVA using ‘genotype’ and ‘treatment as main factors. […] Data are expressed as means±s.e.mean and […] was set as the criterion for significance.

[3] = tested on: NK1−/− and wild-type mice; conditions: wild-type versus NK1−/− mice; FIG. 13
Method: The effect of betaxolol and desipramine was tested using similar protocols to those used for testing the effect of d-amphetamine.

NK1−/− and NK1+/+ mice [4] = test: Microdialysis of extracellular dopamine in frontal cortex/striatum after d-amphetamine; format: in vivo; conditions: d-amphetamine 5 mg/kg i.p.
Method: as §1, with “NK1+/+ (wild-type)” for “NK1+/+(wild-type)”
Microdialysis probes were constructed in-house and equipped with cuprophan membrane (inner diameter 200 μm, outer diameter 250 μm, molecular weight cut-off 5 kD; Medicell International Ltd., England) forming an active dialysis window of 3.5 mm. Anaesthesia was induced in a closed chamber delivering 2.0% halothane combined with 95% O2/5% CO2 at 2 L/min. The mice were then placed in a stereotaxic frame and anaesthesia maintained, via a face mask, with 1.5% halothane in 95% O2/5% CO2 (2 L/min).
A small incision was made in the scalp to expose the skull and reveal bregma. […] Vital signs were monitored continually to ensure a respiratory rate of 100-190/min (average: 135±20/min). […]
The dopamine content of the dialysis samples was determined by HPLC coupled to electrochemical detection. […] Dopamine was detected using a Coulochem TI detector (ESA) and the mobile phase was conditioned by a guard cell (ESA model 5020). The […] content of the samples was calculated from the peak height of the chromatogram with reference to an external standard. […]

NK1R−/− and NK1R+/+ mice = test: Activity meter (locomotor activity chamber), ambulatory activity; format: in vivo; conditions: FIG. 2
Method: Behavioural tests were carried out in a standard locomotor activity chamber comprising a custom-made transparent perspex box (length 30 cm; width 19 cm; depth 18 cm). The box was placed in the centre of an activity meter (410×410 mm, Columbia Instruments, USA) which was equipped with parallel infrared beams spanning the chamber. Ambulatory activity was scored whenever the mouse interrupted two adjacent beams. Light intensity within the chamber was 82 lux. All experiments were performed in drug-naive mice, between 14:00 h and 18:30 h. […] The apparatus was cleaned thoroughly with water after each experiment.

NK1−/− and NK1+/+ mice [5] = test: Light/dark exploration box, locomotor activity after desipramine; format: in vivo; conditions: desipramine 10 mg/kg i.p., FIG. 3
Method: Experiments were carried out on male NK1−/− (‘knock-out’) and NK1+/+(wild-type) mice, weighing 25-31 g (i.e. about 6-7 weeks of age). Mice were derived from a 129/Sv×C57BL/6 genetic background that had been crossed with an outbred MF1 strain (Harlan OLAC, Bicester, UK). All mice were taken from a colony maintained at University College London. All experiments were performed in treatment-naïve mice, between 13:00 h and 17:00 h. Behavioural tests were carried out in a custom-built light/dark exploration box (LDEB) (length 45 cm; width 20 cm; depth 25 cm). The test box consisted of a small ‘dark zone’ (length 15 cm; 4 lux) and a larger ‘light zone’ (length 30 cm; 20 lux). The walls and floor of the ‘dark zone’ were coloured black. […] The behaviour of the mouse was recorded on video for the following 30 min. The following behaviours were later scored ‘blind’, in 10 min time-bins: i) latency to leave the light zone following forced entry (anxiety-like behaviour or impulsivity?) ii) latency to first return to the light zone following the first exit (the appearance of all four paws was the criterion for re-entry) (impulsivity) iii) number of returns to the light zone (impulsivity) iv) number of lines crossed by all four paws of the mouse (as an index of locomotor activity) Data were analysed by two-way analysis of variance (ANOVA) using ‘genotype’ and ‘treatment’ as main factors. […]

SMILES: FC(F)(F)c1cc(CO[C@H]2CCCN[C@H]2c2ccccc2)cc(C(F)(F)F)c1 [L733060]
- behaviour (locomotor activity, response to d-AMP) of NK1+/+ mice given a NK1 antagonist ('pseudo knockout') (NK1−/− and NK1+/+ mice [1]; NK1+/+ mice): Mimics that of Nk1−/− Mice

SMILES: COC(=O)C(c1ccccc1)C1CCCCN1 (stereo not drawn) [methylphenidate]
- locomotor activity (number of lines crossed) (NK1−/− and NK1+/+ mice [2]; NK1+/+ mice): increased locomotor activity
- locomotor activity (number of lines crossed) (NK1−/− and NK1+/+ mice [2]; NK1−/− mice): reduced activity

SMILES: COc1ccccc1CC(=N)N1C[C@@H]2C(=O)CCC(c3ccccc3)(c3ccccc3)[C@@H]2C1 [RP 67580]
- behaviour (locomotor activity, response to d-AMP) of NK1+/+ mice given a NK1 antagonist ('pseudo knockout') (NK1−/− and NK1+/+ mice [1]; NK1+/+ mice): Mimics that of Nk1−/− Mice

SMILES: CC(C)NCC(O)COc1ccc(CCOCC2CC2)cc1 (stereo not drawn) [betaxolol]
- locomotor activity [3]: not all drugs that increase locomotor activity in wild-type mice reduce it in NK1^−/− mice

SMILES: C[C@H](N)Cc1ccccc1 [d-AMP, d-amphetamine]
- locomotor activity (number of lines crossed) (NK1−/− and NK1+/+ mice [1]; NK1+/+ mice): increased
- locomotor activity (number of lines crossed) (NK1−/− and NK1+/+ mice [1]; NK1−/− mice): reduced
- extracellular dopamine in the frontal cortex/striatum (NK1−/− and NK1+/+ mice [4]; NK1+/+ mice): increased
- extracellular dopamine in the frontal cortex/striatum (NK1−/− and NK1+/+ mice [4]; NK1−/− mice): no d-AMP induced increase; also recorded: not NK1−/− mice

SMILES: CNCCCN1c2ccccc2CCc2ccccc21 [desipramine]
- locomotor activity in an activity chamber (NK1R−/− and NK1R+/+ mice; NK1R+/+ mice): not NK1R+/+ mice
- locomotor activity in an activity chamber (NK1R−/− and NK1R+/+ mice; NK1R−/− mice): reduces locomotor activity
- hyperactivity (locomotor activity) in a light/dark exploration box (NK1−/− and NK1+/+ mice [5]): reduction

Reference: patent publication US20100169994A1, “ANIMAL MODEL” (priority 2007, published 2010)
